# Assay results from ChEMBL document CHEMBL1126567, “CC-1065 functional analogues possessing different electron-withdrawing substituents and leaving groups: synthesis, kinetics, and sequence specificity of reaction with DNA and biological evaluation” (J Med Chem, 1993).
# Experiment: In vitro reduction in viability of KB cells by modified crystal violet assay.
# Format: functional, cell-based
# Conditions: Homo sapiens
row,Structure (SMILES),IC50
1,CS(=O)(=O)OCC1CN(S(C)(=O)=O)c2cc(O)ccc21 (configuration not stated),3.69 µg/mL
2,COc1cccc2c1C(=O)c1c(O)c3c(c(O)c1C2=O)C[C@@](O)(C(=O)CO)C[C@@H]3O[C@H]1C[C@H](N)[C@H](O)[C@H](C)O1 [DOXORUBICIN],0.02 µg/mL
3,CS(=O)(=O)N1CC(CCl)c2cc(C=O)c(OCc3ccccc3)cc21 (configuration not stated),3.24 µg/mL
4,CS(=O)(=O)N1CC2CC23C=CC(=O)C=C13 (configuration not stated),8.64 µg/mL
5,CS(=O)(=O)OCC1CN(S(C)(=O)=O)c2cc(OCc3ccccc3)c(Br)cc21 (configuration not stated),5.21 µg/mL
6,CS(=O)(=O)N1CC(CCl)c2cc(Br)c(OCc3ccccc3)cc21 (configuration not stated),6.18 µg/mL
7,CS(=O)(=O)OCC1CN(S(C)(=O)=O)c2cc(O)c([N+](=O)[O-])cc21 (configuration not stated),0.764 µg/mL
8,COC(=O)c1cc2c(cc1OCc1ccccc1)N(S(C)(=O)=O)CC2CCl (configuration not stated),7.14 µg/mL
9,CS(=O)(=O)N1CC(CCl)c2ccc(O)cc21 (configuration not stated),4.24 µg/mL
10,COC(=O)c1cc2c(cc1O)N(S(C)(=O)=O)CC2CCl (configuration not stated),8.38 µg/mL
11,CS(=O)(=O)OCC1CN(S(C)(=O)=O)c2cc(O)c(Br)cc21 (configuration not stated),0.308 µg/mL
12,CS(=O)(=O)N1CC(CCl)c2cc([N+](=O)[O-])c(O)cc21 (configuration not stated),8.85 µg/mL
13,CS(=O)(=O)OCC1CN(S(C)(=O)=O)c2cc(OCc3ccccc3)c([N+](=O)[O-])cc21 (configuration not stated),7.91 µg/mL
14,CS(=O)(=O)N1CC(CCl)c2ccc(OCc3ccccc3)cc21 (configuration not stated),6.32 µg/mL
15,CS(=O)(=O)N1CC(CCl)c2cc(C=O)c(O)cc21 (configuration not stated),4.83 µg/mL
16,CS(=O)(=O)N1CC(CCl)c2cc(Br)c(O)cc21 (configuration not stated),3.8 µg/mL
17,CS(=O)(=O)OCC1CN(S(C)(=O)=O)c2cc(OCc3ccccc3)ccc21 (configuration not stated),4.39 µg/mL
